According to patent publication US6114327A, “Anti-viral compounds” (Eli Lilly and Company, priority 1999, dated 2000):
In brackets after ≈: the same amount, converted by molar mass.

Tested on: rhinovirus, HRV-14
Experiment: Anti-picornaviral plaque reduction assay
Assay type: cell-based
Conditions: Rhinovirus B, HRV14, Table 1, 50% inhibition of plaque formation, BSC-1 or Hela cells, 120 hours at 32° C., trans isomer

Row | IC50 [mg/L] | SMILES
1 | 3.52 (≈ 8.72 µM) | CC(C)S(=O)(=O)n1c(N)nc2ccc(/C(=C/[S+](C)[O-])c3ccccc3)cc21 (centres unmarked) [10 (parent), reference compound]
2 | 0.394 (≈ 0.896 µM) | CC(C)S(=O)(=O)n1c(N)nc2ccc(/C(=C/[S+](C)[O-])c3cccc(F)c3F)cc21 (centres unmarked) [Example 10]
3 | 0.05 (≈ 0.125 µM) | COC(=O)/C=C(\c1ccccc1)c1ccc2nc(N)n(S(=O)(=O)C(C)C)c2c1 [12 (parent), reference compound]
4 | 0.05 (≈ 0.11 µM) | CC(C)S(=O)(=O)n1c(N)nc2ccc(/C(=C/S(C)(=O)=O)c3cccc(F)c3F)cc21 [Example 8, Trans 1-Isopropylsulfonyl-2-Amino-6-(1-[2,3-Difluorophenyl]-2-Methylsulfonylethen-1-yl)benzimidazole]
5 | 2.58 (≈ 6.66 µM) | CS/C=C(\c1ccccc1)c1ccc2nc(N)n(S(=O)(=O)C(C)C)c2c1 [9 (parent), reference compound]
6 | 0.048 (≈ 0.114 µM) | CC(=O)/C=C(/c1ccc2nc(N)n(S(=O)(=O)C(C)C)c2c1)c1cccc(F)c1F [Example 11, Trans 1-Isopropylsulfonyl-2-Amino-6-(1-[2,3-Difluorophenyl]-2-(1-Oxoeth-1-yl)ethen-1-yl)benzimidazole]
7 | 0.21 (≈ 0.523 µM) | CC(=O)/C=C(\c1ccc(F)cc1)c1ccc2nc(N)n(S(=O)(=O)C(C)C)c2c1 [Example 14, 1-Isopropylsulfonyl-2-Amino-6-(1-[4-Fluorophenyl]-2-(1-Oxoeth-1-yl)ethen-1-yl)benzimidazole]

Further lines, the compound ahead of its results:

Row | SMILES | IC50 [mg/L]
8 | COC(=O)/C=C(/c1ccc2nc(N)n(S(=O)(=O)C(C)C)c2c1)c1cccc(F)c1F [Example 12] | 0.052 (≈ 0.119 µM)
9 | CS/C=C(/c1ccc2nc(N)n(S(=O)(=O)C(C)C)c2c1)c1cccc(F)c1F [Example 9, 1-Isopropylsulfonyl-2-Amino-6-(1-[2,3-Difluorophenyl]-2-Methylsulfidoethen-1-yl)benzimidazole] | 0.072 (≈ 0.17 µM)
10 | CC(C)S(=O)(=O)n1c(N)nc2ccc(/C(=N/O)c3ccccc3)cc21 [13 (parent), reference compound] | 0.05 (≈ 0.139 µM)
11 | CC(C)S(=O)(=O)n1c(N)nc2ccc(/C(=N/O)c3cccc(F)c3F)cc21 [Example 13, Trans 1-Isopropylsulfonyl-2-Amino-6-(1-[2,3-Difluorophenyl]oximyl)benzimidazole] | 0.051 (≈ 0.129 µM)
